# Biological target: Escherichia coli DNA gyrase A/B tetramer (Escherichia coli (strain K12), UniProt P0AES4+P0AES6)
# Assay: DNA gyrase supercoiling activity fluorescence polarisation assay
# Format: biochemical
# Conditions: 5 nM enzyme, relaxed plasmid, 0.3 mM ATP, ambient temperature; read-out: E. coli DNA gyrase supercoiling IC50
# Outline: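 Supercoiling reactions quenched with 40 nM 5′-BODIPY-FL triplex-forming oligonucleotide probe in pH 3.5 NaCl/sodium acetate buffer; after 60 min, fluorescence anisotropy read (ex 485/em 535 nm). IC50 by nonlinear regression, normalised to 0.8% DMSO (100% activity) and 5 μM ciprofloxacin (0% activity).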
row,Compound,IC50
1,"C[C@@H]1CN2c3c(nc4c(-c5nccs5)noc4c3Cl)CC3(C(=O)NC(=O)NC3=O)[C@H]2[C@H](C)O1 [Example 111(b), (2R,4S,4aS)-11-chloro-2,4-dimethyl-8-(thiazol-2-yl)-2,4,4a,6-tetrahydro-1H,1′H-spiro[isoxazolo[4,5-g][1,4]oxazino[4,3-a][1,5]naphthyridine-5,5′-pyrimidine]-2′,4′,6′(3′H)-trione]",1100 nM
2,"CNC(=O)c1noc2c(F)c3c(cc12)CC1(C(=O)NC(=O)NC1=O)[C@H]1[C@H](C)O[C@H](C)CN31 [Example 140(a), (2R,4S,4aS)-11-fluoro-N,2,4-trimethyl-2′,4′,6′-trioxo-2,2′,3′,4,4a,4′,6,6′-octahydro-1H,1′H-spiro[isoxazolo[4,5-g][1,4]oxazino[4,3-a]quinoline-5,5′-pyrimidine]-8-carboxamide]",900 nM
3,"CC(C)NC(=O)c1noc2c(F)c3c(cc12)CC1(C(=O)NC(=O)NC1=O)[C@H]1[C@H](C)O[C@H](C)CN31 [Example 147(a), (2R,4S,4aS)-11-fluoro-N-isopropyl-2,4-dimethyl-2′,4′,6′-trioxo-2,2′,3′,4,4a,4′,6,6′-octahydro-1H,1′H-spiro[isoxazolo[4,5-g][1,4]oxazino[4,3-a]quinoline-5,5′-pyrimidine]-8-carboxamide]",900 nM
4,"C[C@H]1CN2c3c(cc4c(-c5ncccn5)noc4c3F)CC3(C(=O)NC(=O)NC3=O)[C@@H]2[C@@H](C)O1 [Example 148(a), (2S,4R,4aR)-11-fluoro-2,4-dimethyl-8-(pyrimidin-2-yl)-2,4,4a,6-tetrahydro-1H,1′H-spiro[isoxazolo[4,5-g][1,4]oxazino[4,3-a]quinoline-5,5′-pyrimidine]-2′,4′,6′(3′H)-trione]",83000 nM
5,"C[C@@H]1CN2c3c(cc4c(-c5ncccn5)noc4c3F)CC3(C(=O)NC(=O)NC3=O)[C@H]2[C@H](C)O1 [Example 148(b), (2R,4S,4aS)-11-fluoro-2,4-dimethyl-8-(pyrimidin-2-yl)-2,4,4a,6-tetrahydro-1H,1′H-spiro[isoxazolo[4,5-g][1,4]oxazino[4,3-a]quinoline-5,5′-pyrimidine]-2′,4′,6′(3′H)-trione]",400 nM
6,"C[C@@H]1CN2c3c(cc4c(-c5cnccn5)noc4c3F)CC3(C(=O)NC(=O)NC3=O)[C@H]2[C@H](C)O1 [Example 165(b), (2R,4S,4aS)-11-fluoro-2,4-dimethyl-8-(pyrazin-2-yl)-2,4,4a,6-tetrahydro-1H,1′H-spiro[isoxazolo[4,5-g][1,4]oxazino[4,3-a]quinoline-5,5′-pyrimidine]-2′,4′,6′(3′H)-trione]",200 nM
7,"C[C@@H]1CN2c3c(cc4c(-c5cnc(N6CCOCC6)cn5)noc4c3F)CC3(C(=O)NC(=O)NC3=O)[C@@H]2[C@@H](C)O1 [Example 166(a), (2R,4R,4aR)-11-fluoro-2,4-dimethyl-8-(5-morpholinopyrazin-2-yl)-2,4,4a,6-tetrahydro-1H,1′H-spiro[isoxazolo[4,5-g][1,4]oxazino[4,3-a]quinoline-5,5′-pyrimidine]-2′,4′,6′(3′H)-trione]",83000 nM
8,"C[C@@H]1CN2c3c(cc4c(-c5cnc(N6CCOCC6)cn5)noc4c3F)CC3(C(=O)NC(=O)NC3=O)[C@H]2[C@H](C)O1 [Example 166(b), (2R,4S,4aS)-11-fluoro-2,4-dimethyl-8-(5-morpholinopyrazin-2-yl)-2,4,4a,6-tetrahydro-1H,1′H-spiro[isoxazolo[4,5-g][1,4]oxazino[4,3-a]quinoline-5,5′-pyrimidine]-2′,4′,6′(3′H)-trione]",6900 nM
9,"COc1cncc(-c2noc3c(F)c4c(cc23)CC2(C(=O)NC(=O)NC2=O)[C@H]2[C@H](C)O[C@H](C)CN42)n1 [Example 167, (2R,4S,4aS)-11-fluoro-8-(6-methoxypyrazin-2-yl)-2,4-dimethyl-2,4,4a,6-tetrahydro-1H,1′H-spiro[isoxazolo[4,5-g][1,4]oxazino[4,3-a]quinoline-5,5′-pyrimidine]-2′,4′,6′(3′H)-trione]",1100 nM
10,"CSc1nccc(-c2noc3c(F)c4c(cc23)CC2(C(=O)NC(=O)NC2=O)[C@H]2[C@H](C)O[C@H](C)CN42)n1 [Example 168, (2R,4S,4aS)-11-fluoro-2,4-dimethyl-8-(2-(methylthio)pyrimidin-4-yl)-2,4,4a,6-tetrahydro-1H,1′H-spiro[isoxazolo[4,5-g][1,4]oxazino[4,3-a]quinoline-5,5′-pyrimidine]-2′,4′,6′(3′H)-trione]",600 nM
11,"COCCNc1nccc(-c2noc3c(F)c4c(cc23)CC2(C(=O)NC(=O)NC2=O)[C@H]2[C@H](C)O[C@H](C)CN42)n1 [Example 170, (2R,4S,4aS)-11-fluoro-8-(2-(2-methoxyethylamino)pyrimidin-4-yl)-2,4-dimethyl-2,4,4a,6-tetrahydro-1H,1′H-spiro[isoxazolo[4,5-g][1,4]oxazino[4,3-a]quinoline-5,5′-pyrimidine]-2′,4′,6′(3′H)-trione]",700 nM
12,"C[C@@H]1CN2c3c(cc4c(-c5ccnc(NCCO)n5)noc4c3F)CC3(C(=O)NC(=O)NC3=O)[C@H]2[C@H](C)O1 [Example 171, (2R,4S,4aS)-11-fluoro-8-(2-(2-hydroxyethylamino)pyrimidin-4-yl)-2,4-dimethyl-2,4,4a,6-tetrahydro-1H,1′H-spiro[isoxazolo[4,5-g][1,4]oxazino[4,3-a]quinoline-5,5′-pyrimidine]-2′,4′,6′(3′H)-trione]",300 nM
13,"COc1nccc(-c2noc3c(F)c4c(cc23)CC2(C(=O)NC(=O)NC2=O)[C@H]2[C@H](C)O[C@H](C)CN42)n1 [Example 172, (2R,4S,4aS)-11-fluoro-8-(2-methoxypyrimidin-4-yl)-2,4-dimethyl-2,4,4a,6-tetrahydro-1H,1′H-spiro[isoxazolo[4,5-g][1,4]oxazino[4,3-a]quinoline-5,5′-pyrimidine]-2′,4′,6′(3′H)-trione]",900 nM
14,"C[C@@H]1CN2c3c(cc4c(-c5ccnc(C#N)n5)noc4c3F)CC3(C(=O)NC(=O)NC3=O)[C@H]2[C@H](C)O1 [Example 173, 4-((2R,4S,4aS)-11-fluoro-2,4-dimethyl-2′,4′,6′-trioxo-2,2′,3′,4,4a,4′,6,6′-octahydro-1H,1′H-spiro[isoxazolo[4,5-g][1,4]oxazino[4,3-a]quinoline-5,5′-pyrimidine]-8-yl)pyrimidine-2-carbonitrile]",100 nM
15,"C[C@@H]1CN2c3c(cc4c(-c5ccnc(N)n5)noc4c3F)CC3(C(=O)NC(=O)NC3=O)[C@H]2[C@H](C)O1 [Example 174, (2R,4S,4aS)-8-(2-aminopyrimidin-4-yl)-11-fluoro-2,4-dimethyl-2,4,4a,6-tetrahydro-1H,1′H-spiro[isoxazolo[4,5-g][1,4]oxazino[4,3-a]quinoline-5,5′-pyrimidine]-2′,4′,6′(3′H)-trione]",500 nM
16,"C[C@@H]1CN2c3c(cc4c(-c5ccnc(O)n5)noc4c3F)CC3(C(=O)NC(=O)NC3=O)[C@H]2[C@H](C)O1 [Example 175, (2R,4S,4aS)-11-fluoro-8-(2-hydroxypyrimidin-4-yl)-2,4-dimethyl-1,2,4,4a-tetrahydro-2′H,6H-spiro[isoxazolo[4,5-g][1,4]oxazino[4,3-a]quinoline-5,5′-pyrimidine]-2′,4′,6′(1′H,3′H)-trione]",900 nM
17,"C[C@@H]1CN2c3c(cc4c(-c5ccnc(N6CCOCC6)n5)noc4c3F)CC3(C(=O)NC(=O)NC3=O)[C@H]2[C@H](C)O1 [Example 176, (2R,4S,4aS)-11-fluoro-2,4-dimethyl-8-(2-morpholinopyrimidin-4-yl)-2,4,4a,6-tetrahydro-1H,1′H-spiro[isoxazolo[4,5-g][1,4]oxazino[4,3-a]quinoline-5,5′-pyrimidine]-2′,4′,6′(3′H)-trione]",3200 nM
18,"C[C@@H]1CN2c3c(cc4c(-c5ncnn5C)noc4c3F)CC3(C(=O)NC(=O)NC3=O)[C@H]2[C@H](C)O1 [Example 178, (2R,4S,4aS)-11-fluoro-2,4-dimethyl-8-(1-methyl-1H-1,2,4-triazol-5-yl)-2,4,4a,6-tetrahydro-1H,1′H-spiro[isoxazolo[4,5-g][1,4]oxazino[4,3-a]quinoline-5,5′-pyrimidine]-2′,4′,6′(3′H)-trione]",1300 nM

# Source: patent publication US9040528B2, “Chemical compounds 542” (AstraZeneca AB, priority 2008, dated 2015)
